Columns and labels:
hA2AAR [1] = target: T1, hA2AAR (Homo sapiens, UniProt P29274); conditions: label-free whole-cell assay, HEK293hA2AR
hA2AAR [2] = target: T1, hA2AAR; conditions: 1 μM; all adenosine receptor subtypes
[3] = patients with heart failure; cited from earlier work

T1 sequence (P29274 whole entry): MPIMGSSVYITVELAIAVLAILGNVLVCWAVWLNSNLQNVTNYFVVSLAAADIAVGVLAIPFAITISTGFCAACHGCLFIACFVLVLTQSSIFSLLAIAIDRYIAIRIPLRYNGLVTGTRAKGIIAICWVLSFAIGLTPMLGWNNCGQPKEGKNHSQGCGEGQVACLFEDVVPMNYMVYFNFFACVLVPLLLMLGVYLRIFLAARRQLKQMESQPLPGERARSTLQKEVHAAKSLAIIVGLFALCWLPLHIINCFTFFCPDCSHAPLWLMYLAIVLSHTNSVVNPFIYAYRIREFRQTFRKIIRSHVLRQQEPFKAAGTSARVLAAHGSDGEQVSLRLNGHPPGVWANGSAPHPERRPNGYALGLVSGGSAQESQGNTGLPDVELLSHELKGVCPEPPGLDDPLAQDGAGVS

Row | SMILES | functional behavior / intrinsic activity at hA2AAR (hA2AAR [1]) | further results
1 | Nc1nc(SCc2ncc[nH]2)nc(-c2ccccc2)n1 [Compound 2, 4-(1H-Imidazol-2-yl)methylthio-6-phenyl-1,3,5-triazin-2-amine] | inverse agonism | –
2 | Nc1cc(-c2ccccc2)cc(SCc2ncc[nH]2)n1 [Compound 5, 6-(((1H-Imidazol-2-yl)methyl)thio)-4-phenylpyridin-2-amine] | – | displacement of radioligand binding in preliminary single-concentration assays (hA2AAR [2]): no or negligible displacement
3 | N#Cc1c(-c2ccccc2)cc(N)nc1SCc1ncc[nH]1 [Compound 6, 2-(((1H-Imidazol-2-yl)methyl)thio)-6-amino-4-phenylnicotinonitrile] | did not show any measurable degree of intrinsic activity | –
4 | N#Cc1c(SCc2csc(-c3ccc(Cl)cc3)n2)nc(N2CCCC2)c(C#N)c1-c1ccc(OCCO)cc1 [neladenoson] | – | primary endpoint of phase 2b clinical trial [3]: failed to meet the primary endpoint
5 | N#Cc1c(SCc2ncc[nH]2)nc(N)nc1-c1ccccc1 [Compound 3, 4-((1H-Imidazol-2-yl)methylthio)-2-amino-6-phenylpyrimidine-5-carbonitrile] | inverse agonist | –

— PMC8154574 (Journal of Medicinal Chemistry, 2021)
